In the supplement of paper PMC10307832:

How the values were obtained:
Assay in all cases: relative viability (nuclei count vs DMSO), 5 days (fraction); higher = more cells survive
TGX 221 + Alpelisib = compound: CC1=CN2C(=O)C=C(N=C2C(=C1)C(C)NC3=CC=CC=C3)N4CCOCC4 [TGX 221] + Cc1nc(NC(=O)N2CCC[C@H]2C(N)=O)sc1-c1ccnc(C(C)(C)C(F)(F)F)c1 [Alpelisib] (partner 2 µM)
How it was run: (§1)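 Lung cancer cell lines, seeded in 1536-well plates, were treated the following day by pin tool with a single drug or with five library-drug doses (not always all listed) in √10 steps on top of a fixed anchor-drug dose. Cells were fixed and nuclei stained in one step after 5 days, and nuclei were counted. Relative viability is the nuclei count for treated wells divided by that for vehicle wells, reported as medians of duplicate plates.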

TGX 221 + Dasatinib = compound: CC1=CN2C(=O)C=C(N=C2C(=C1)C(C)NC3=CC=CC=C3)N4CCOCC4 [TGX 221] + Cc1nc(Nc2ncc(C(=O)Nc3c(C)cccc3Cl)s2)cc(N2CCN(CCO)CC2)n1 [Dasatinib] (partner 0.075 µM)
How it was run: as §1

[1] = compound: C1=CC=C(C(=C1)C2=CC=C(C=C2)C3=CSC4=C3C(=C(C(=O)N4)C#N)O)O + O=C(c1cc(Cc2n[nH]c(=O)c3ccccc23)ccc1F)N1CCN(C(=O)C2CC2)CC1 [Olaparib] (partner 8 µM)
How it was run: as §1

[2] = compound: C1=CC=C(C(=C1)C2=CC=C(C=C2)C3=CSC4=C3C(=C(C(=O)N4)C#N)O)O + C[C@]1(O)C[C@@H](c2nc(-c3ccc4ccc(-c5ccccc5)nc4c3)c3c(N)nccn32)C1 [Linsitinib] (partner 1 µM)
How it was run: as §1

Cell Line	relative viability (TGX 221 + Alpelisib; first compound 0.08 µM)	relative viability (TGX 221 + Alpelisib; first compound 0.8 µM)	relative viability (TGX 221 + Alpelisib; first compound 2.53 µM)	relative viability (TGX 221 + Alpelisib; first compound 8 µM)	relative viability (TGX 221 + Dasatinib; first compound 0.08 µM)	relative viability (TGX 221 + Dasatinib; first compound 0.253 µM)	relative viability (TGX 221 + Dasatinib; first compound 0.8 µM)	relative viability (TGX 221 + Dasatinib; first compound 2.53 µM)	relative viability (TGX 221 + Dasatinib; first compound 8 µM)	relative viability ([1]; first compound 0.08 µM)	relative viability ([1]; first compound 0.253 µM)	relative viability ([1]; first compound 0.8 µM)	relative viability ([1]; first compound 2.53 µM)	relative viability ([1]; first compound 8 µM)	relative viability ([2]; first compound 0.08 µM)	relative viability ([2]; first compound 0.253 µM)	relative viability ([2]; first compound 0.8 µM)	relative viability ([2]; first compound 2.53 µM)	relative viability ([2]; first compound 8 µM)	relative viability (TGX 221 + Alpelisib; first compound 0.253 µM)
LC-2-ad	0.81	0.722	0.645	0.62	0.459	0.51	0.66	0.55	0.505	0.702	0.899	0.701	0.744	0.76	0.894	0.889	0.805	0.876	0.751	–
LCLC-97TM1	0.261	0.287	0.199	0.214	0.902	0.73	0.779	0.742	0.791	0.223	0.357	0.431	0.429	0.445	0.197	0.203	0.222	0.198	0.164	0.246
LCLC-103H	1.03	0.776	0.743	0.654	0.359	0.438	0.446	0.344	0.307	0.605	0.684	0.789	0.832	0.718	1.11	1.22	0.984	1.08	0.869	0.896
LK-2	1.02	0.959	0.665	1	0.242	0.293	0.312	0.298	0.265	0.568	0.899	0.883	0.822	0.753	0.34	0.553	0.479	0.717	0.344	1.05
LOU-NH91	0.69	0.682	0.697	0.575	0.561	0.541	0.535	0.571	0.529	0.877	1.01	0.872	0.959	0.877	0.903	1.06	0.878	0.911	0.89	0.706
LU99A	0.524	0.494	0.513	0.57	0.507	0.507	0.509	0.556	0.593	0.255	0.225	0.248	0.262	0.266	0.556	0.582	0.614	0.645	0.468	0.443
LXF-289	0.948	0.947	0.898	0.898	0.209	0.254	0.194	0.18	0.203	1.1	1.24	0.958	1.01	1.02	0.978	0.961	0.986	1	0.973	0.979
NCI-H23	0.66	0.471	0.606	0.574	0.784	0.745	0.823	0.742	0.586	0.282	0.298	0.37	0.336	0.273	0.614	0.58	0.679	0.603	0.402	0.572
NCI-H322M	0.8	0.64	0.687	0.505	0.231	0.242	0.244	0.247	0.224	0.69	0.742	0.863	0.519	0.748	1.07	0.587	0.874	0.909	0.787	0.64
NCI-H358	0.723	0.828	0.85	0.726	0.158	0.169	0.146	0.165	0.158	0.4	0.654	0.531	0.562	0.587	0.868	0.742	0.69	0.914	0.595	0.75
NCI-H441	0.889	0.717	0.768	0.848	0.534	0.597	0.59	0.609	0.661	0.548	0.539	0.64	0.716	0.462	0.583	0.748	0.617	0.746	0.552	0.723
NCI-H460	0.386	0.274	0.167	0.137	0.478	0.477	0.526	0.539	0.432	0.341	0.406	0.331	0.452	0.434	–	0.81	0.682	1.06	0.657	0.295
NCI-H520	0.696	0.42	0.243	0.254	0.215	0.202	0.156	0.16	0.159	0.283	0.318	0.363	0.365	0.347	0.712	1.08	1.26	1.21	0.829	0.45
NCI-H596	0.423	0.445	0.403	0.387	0.593	0.531	0.585	0.522	0.563	0.594	0.683	0.695	0.539	0.658	0.967	1.17	1.13	1.1	0.733	0.419
NCI-H647	0.867	0.65	0.624	0.459	0.189	0.145	0.15	0.163	0.136	–	0.648	0.677	0.776	0.421	1.17	1.1	1.21	1.17	1.08	0.862
NCI-H650	1.23	1.13	0.912	0.791	0.44	0.402	0.424	0.393	0.429	0.42	0.375	0.402	0.495	0.432	0.857	0.817	0.737	0.914	0.716	1.02

Cell Line	relative viability (TGX 221 + Alpelisib; first compound 0.08 µM)	relative viability (TGX 221 + Alpelisib; first compound 0.8 µM)	relative viability (TGX 221 + Alpelisib; first compound 2.53 µM)	relative viability (TGX 221 + Alpelisib; first compound 8 µM)	relative viability (TGX 221 + Dasatinib; first compound 0.08 µM)	relative viability (TGX 221 + Dasatinib; first compound 0.253 µM)	relative viability (TGX 221 + Dasatinib; first compound 0.8 µM)	relative viability (TGX 221 + Dasatinib; first compound 2.53 µM)	relative viability (TGX 221 + Dasatinib; first compound 8 µM)	relative viability ([1]; first compound 0.08 µM)	relative viability ([1]; first compound 0.253 µM)	relative viability ([1]; first compound 0.8 µM)	relative viability ([1]; first compound 2.53 µM)	relative viability ([1]; first compound 8 µM)	relative viability ([2]; first compound 0.08 µM)	relative viability ([2]; first compound 0.253 µM)	relative viability ([2]; first compound 0.8 µM)	relative viability ([2]; first compound 2.53 µM)	relative viability ([2]; first compound 8 µM)	relative viability (TGX 221 + Alpelisib; first compound 0.253 µM)
NCI-H661	0.45	0.201	0.559	0.516	0.945	0.831	0.803	0.876	0.828	0.64	0.799	0.724	0.843	0.708	0.589	0.607	0.561	0.487	0.471	0.52
NCI-H727	0.591	0.484	0.557	0.513	0.287	0.436	0.412	0.409	0.439	0.829	0.795	0.704	0.756	0.825	0.242	0.238	0.284	0.237	0.237	0.436
NCI-H838	0.902	0.849	0.723	0.631	0.305	0.258	0.273	0.234	0.223	0.522	0.963	0.811	0.784	0.773	0.738	1.22	1.08	0.988	1.04	0.88
NCI-H1355	0.711	0.673	0.584	0.54	0.688	0.688	0.721	0.688	0.632	0.734	0.956	0.745	0.775	0.553	0.981	0.746	0.824	0.758	0.625	0.67
NCI-H1395	0.935	0.89	0.514	0.584	0.399	0.383	0.406	0.348	0.362	–	0.469	0.479	0.458	0.446	–	1.89	1.13	1.03	1.38	1.16
NCI-H1437	0.892	0.889	0.66	0.487	0.408	0.427	0.517	0.323	0.356	0.616	0.74	0.668	0.641	0.606	0.668	1.37	1.03	1.21	0.81	0.851
NCI-H1651	0.83	0.77	0.716	0.498	0.505	0.371	0.464	0.345	0.362	0.185	0.182	0.197	0.186	0.16	0.807	0.9	1.02	0.868	0.788	0.742
NCI-H1666	0.855	0.735	0.645	0.654	0.81	0.756	0.778	0.739	0.753	0.731	0.715	0.767	0.737	0.747	0.753	0.817	0.873	1	0.653	0.742
NCI-H1734	0.619	0.562	0.448	0.448	0.472	0.393	0.433	0.444	0.391	0.601	0.687	0.678	0.601	0.529	0.734	0.849	0.882	1.01	0.646	0.509
NCI-H1755	0.876	0.651	0.49	0.437	0.406	0.371	0.366	0.317	0.317	0.989	0.901	0.875	0.841	0.916	0.934	1.17	0.889	1.19	0.97	0.706
NCI-H1793	0.611	0.482	0.446	0.406	0.344	0.289	0.363	0.48	0.381	0.929	0.937	0.867	0.882	0.78	0.679	1.12	0.747	0.856	0.508	0.503
NCI-H1915	1	1.08	1.1	1.01	0.257	0.303	0.304	0.302	0.314	0.298	0.265	0.262	0.273	0.246	1.2	1.15	1.08	1.19	1.01	0.999
NCI-H1944	0.77	0.554	0.488	0.422	0.225	0.202	0.228	0.206	0.181	0.465	0.433	0.386	0.464	0.373	1.19	1.18	1.09	1.14	1.19	0.713
NCI-H1975	0.585	0.465	0.446	0.362	0.347	0.335	0.318	0.345	0.343	0.692	0.901	0.796	0.893	0.535	0.926	0.802	1.04	1.02	0.796	0.454
NCI-H1993	0.64	0.723	0.616	0.651	0.504	0.634	0.557	0.541	0.572	0.988	1.67	0.894	1.01	0.882	0.617	0.882	0.713	0.709	0.802	0.57
NCI-H2009	1.16	1.1	0.907	0.733	0.254	0.199	0.228	0.213	0.177	0.649	0.668	0.924	0.591	0.714	1.14	1.24	1.17	1.15	1.15	1.07
